Measured values as given in patent US20120196918A1, “PREVENTING ISLET INFLAMMATION AND DYSFUNCTION AND MAINTAINING PROPER GLUCOSE LEVELS BY CONTROLLING eIF5A AND ITS HYPUSINATION” (priority 2009, published 2012).

Tested on: LPS-treated NOD/Scid-(IL-2Rγ-null) mice
Test: LPS injection model in NOD/Scid-(IL-2Rγ-null) mice
Format: in vivo, mouse
Conditions: GC7 4 mg/kg/day i.p.
Experimental: Because systemic GC7 delivery would be expected to inhibit hypusination in all cells that express DHS, it is unclear if the islet protection afforded by GC7 in vivo is a result of its effects in the islet, the immune cells, or both. In order to clarify this, the IL-1 responses in STZ-treated C57BL/6J animals were assessed by measuring levels of the IL-1-responsive cytokine IL-6. […] No alterations in serum levels of IL13 and Rantes/CCL5 were observed between treatment groups (FIG. 10F). […] To address the role of immune cells more directly, a mouse model was generated to test the role of hypusination in the islet inflammatory response independently of the immune system. Lipopolysaccharide (LPS) is an agent that evokes the NFkB response through activation of the toll-like receptor 4 (TLR4) (48), which is also expressed in pancreatic islets (49). […]
GSIS and IPGTT studies: For GSIS studies using isolated islets, approximately 50 islets or 1×10^6 INS-1 cells per condition were washed and incubated in Krebs-Ringer HEPES-buffered (KRB) solution for one hour at 37° C., and then placed in KRB solution containing 3 mM or 11 mM glucose for one hour. […] Blood glucose was measured from samples taken from the tail vein before intraperitoneal injection of 1 g glucose per kg mouse weight, and at 10, 20, 30, 60, 90, 120, and 180 minutes after glucose administration using an A1phaTrak® glucometer (Abbott). […]

NCCCCCCCN=C(N)N [GC7]
glucose intolerance in IPGTT 3 days after LPS (LPS 20 mg/kg single injection): no evidence of glucose intolerance | iNOS staining intensity in islets (LPS 20 mg/kg): increased iNOS staining intensity in islets of vehicle-treated animals, but not in GC7-treated animals
